From ChEMBL document CHEMBL3046117, “Synthesis of 1-(4-((E)-3-arylacryloyl) phenyl)-3,4-dibromo-1H-pyrrole-2,5-diones and screening for anti-Candida and antituberculosis activity” (2012) come the findings set out here.

The test system of assay [1] is Mycobacterium tuberculosis. The assay can be described thus: Antimycobacterial activity against Mycobacterium tuberculosis H37Rv by MABA method. It counts as functional.
Assay [2] concerns Candida albicans. As to the kind of experiment: Antifungal activity against Candida albicans by dilution method. It counts as functional.

Converted amounts (≈) assume the structure as drawn.

In assay [1], `COc1ccc(/C=C/C(=O)c2ccc(N3C(=O)C(Br)=C(Br)C3=O)cc2)cc1` registered an MIC90 of 500 µg/mL (≈ 1020 µM). The molecule further had an MIC in assay [2] of 1000 µg/mL (≈ 2040 µM).

Molecule NYSTATIN gave an MIC in assay [2] of 100 µg/mL.

As for `O=C(/C=C/c1ccc(O)cc1)c1ccc(N2C(=O)C(Br)=C(Br)C2=O)cc1`, in assay [1], the MIC90 was 60 µg/mL (≈ 126 µM). Besides, the MIC in assay [2] is 150 µg/mL (≈ 314 µM).

Consider `O=C(/C=C/c1ccccc1Cl)c1ccc(N2C(=O)C(Br)=C(Br)C2=O)cc1`, for which the MIC90 in assay [1] turned out to be 250 µg/mL (≈ 504 µM). The molecule also gave an MIC in assay [2] of 1000 µg/mL (≈ 2020 µM).

`O=C(/C=C/c1cccc([N+](=O)[O-])c1)c1ccc(N2C(=O)C(Br)=C(Br)C2=O)cc1`: the MIC90 in assay [1] turned out to be 200 µg/mL (≈ 395 µM). This molecule yielded an MIC in assay [2] of 250 µg/mL (≈ 494 µM).

The molecule `O=C(/C=C/c1ccccc1O)c1ccc(N2C(=O)C(Br)=C(Br)C2=O)cc1` registered an MIC90 in assay [1] of 50 µg/mL (≈ 105 µM). Further, the lowest concentration to inhibit growth in assay [2] (MIC) was 100 µg/mL (≈ 210 µM).

Regarding `O=C(/C=C/c1ccc(Cl)cc1)c1ccc(N2C(=O)C(Br)=C(Br)C2=O)cc1`, the MIC90 in assay [1] turned out to be 100 µg/mL (≈ 202 µM). Also, the MIC in assay [2] was found to be 250 µg/mL (≈ 504 µM).

On to `NNC(=O)c1ccncc1` [ISONIAZID], for which the MIC90 in assay [1] came out at 0.2 µg/mL (≈ 1.46 µM).

Consider `COc1ccc(/C=C/C(=O)c2ccc(N3C(=O)C(Br)=C(Br)C3=O)cc2)cc1[N+](=O)[O-]`, for which, in assay [1], the MIC90 amounted to 1000 µg/mL (≈ 1870 µM). In addition, the MIC in assay [2] came out at 1000 µg/mL (≈ 1870 µM).

`O=C(/C=C/c1ccc(Cl)cc1Cl)c1ccc(N2C(=O)C(Br)=C(Br)C2=O)cc1` gave an MIC90 in assay [1] of 500 µg/mL (≈ 943 µM). The molecule also showed an MIC in assay [2] of 500 µg/mL (≈ 943 µM).

`Cc1ccc(/C=C/C(=O)c2ccc(N3C(=O)C(Br)=C(Br)C3=O)cc2)cc1` returned an MIC90 in assay [1] of 500 µg/mL (≈ 1050 µM). For the same molecule, it took 1000 µg/mL (≈ 2100 µM) to inhibit growth in assay [2] (MIC).

`COc1ccc(/C=C/C(=O)c2ccc(N3C(=O)C(Br)=C(Br)C3=O)cc2)cc1OC` came in with an MIC90 in assay [1] of 500 µg/mL (≈ 959 µM). In assay [2], this molecule yielded an MIC of 500 µg/mL (≈ 959 µM).

Take `COC1=CC(=O)C[C@@H](C)[C@]12Oc1c(Cl)c(OC)cc(OC)c1C2=O` [GRISEOFULVIN]: the MIC in assay [2] is 500 µg/mL (≈ 1420 µM).

As to `O=C(/C=C/c1ccccc1)c1ccc(N2C(=O)C(Br)=C(Br)C2=O)cc1`, the MIC90 in assay [1] is 500 µg/mL (≈ 1080 µM). It took 250 µg/mL (≈ 542 µM) to inhibit growth in assay [2] (MIC).
